Test results reported in patent publication US11834453B2, “Substituted pyrimido[5,4-d]pyrimidines as HER2 inhibitors” (Array BioPharma Inc., priority 2020, dated 2023).

What was measured:
[1] = target: T1, MDR1 (P-gp) (Homo sapiens (Human), UniProt P08183); assay: MDR1 transfected LLC-PK1 permeability/efflux, Assay 6; conditions: pig
Description: (§1) Both MDR1 transfected LLC-PK1 (Assay 6) and MDR1 transfected MDCKII canine Mdr1 knockout cells (Assay 7) were cultured and plated according to manufacturer's recommendations with the exception that the passage media for the MDR1 transfected LLC-PK1 cell line contained only 2% fetal bovine serum so as to extend passage time out to seven days.
(§2) Both positive and negative controls were used to assess functionality of P-gp or BCRP efflux in the assays. Stock solutions for assay controls and the test article were prepared in DMSO for final test concentration of 1 μM. Final organic concentration in the assay was 1%. All dosing solutions contained 10 μM lucifer yellow to monitor MDCKII cell monolayer integrity.
(§3) For the apical to basolateral determination (A to B), 75 μL of the test article in transport buffer were added to the apical side of the individual transwells and 250 μL of basolateral media, without compound or lucifer yellow, were added to each well. For the basolateral to apical determination (B to A), 250 μL of test article in transport buffer were added to each well and 75 μL transport buffer, without compound or lucifer yellow, were added to each transwell. All tests were performed in triplicate, and each compound was tested for both apical to basolateral and basolateral to apical transport. The plates were incubated for 2 hours on a Lab-Line Instruments Titer Orbital Shaker (VWR, West Chester, PA) at 50 rpm and 37° C. with 5% CO2. All culture plates were removed from the incubator, 50 μL of media were removed from the apical and basolateral portion of each well, and added to 150 μL of 1 μM labetalol in 2:1 acetonitrile (ACN): H2O, v/v.
(§4) The plates were read using a Molecular Devices (Sunnyvale, CA) Gemini Fluorometer to evaluate the lucifer yellow concentrations at excitation/emission wavelengths of 425/535 nm. These values were accepted when found to be below 2% for apical to basolateral and 5% basolateral to apical flux across the MDR1-transfected LLC-PK1 or BCRP-transfected MDCKII cell monolayers. The plates were sealed, and the contents of each well analyzed by LC MS/MS. The compound concentrations were determined from the ratio of the peak areas of the compound to the internal standard (labetalol) in comparison to the dosing solution.
(§5) A MDS Sciex API 4000 (Applied Biosystems, Foster City, CA) mass spectrometer was used for detection of the analytes in the ion spray positive mode. Analyte responses were measured by multiple reaction monitoring (“MRM”) of transitions unique to each compound (the protonated precursor ion and selected product ions for each test article and m/z 329 to m/z 162 for labetalol, the internal standard.
(§6) The total run time, including re-equilibration, for a single injection was 1.2 minutes. […] The total run time, including re-equilibration, for a single injection was 0.61 minutes.
(§7) An efflux ratio is calculated from the mean apical to basolateral (A-B) Papp data and basolateral to apical (B-A) Papp data: Efflux ratio=Papp(B−A)/Papp(A−B)

[2] = target: EGFR wild type (EGFR WT) (Homo sapiens (Human), UniProt P00533); assay: Cellular phosphorylation assay, EGF-stimulated EGFR phosphorylation in engineered NIH 3T3 cells, Phospho-EGFR DuoSet IC ELISA, Assay 5; assay type: cell-based
Sequence of EGFR wild type (EGFR WT) (P00533 25-1210): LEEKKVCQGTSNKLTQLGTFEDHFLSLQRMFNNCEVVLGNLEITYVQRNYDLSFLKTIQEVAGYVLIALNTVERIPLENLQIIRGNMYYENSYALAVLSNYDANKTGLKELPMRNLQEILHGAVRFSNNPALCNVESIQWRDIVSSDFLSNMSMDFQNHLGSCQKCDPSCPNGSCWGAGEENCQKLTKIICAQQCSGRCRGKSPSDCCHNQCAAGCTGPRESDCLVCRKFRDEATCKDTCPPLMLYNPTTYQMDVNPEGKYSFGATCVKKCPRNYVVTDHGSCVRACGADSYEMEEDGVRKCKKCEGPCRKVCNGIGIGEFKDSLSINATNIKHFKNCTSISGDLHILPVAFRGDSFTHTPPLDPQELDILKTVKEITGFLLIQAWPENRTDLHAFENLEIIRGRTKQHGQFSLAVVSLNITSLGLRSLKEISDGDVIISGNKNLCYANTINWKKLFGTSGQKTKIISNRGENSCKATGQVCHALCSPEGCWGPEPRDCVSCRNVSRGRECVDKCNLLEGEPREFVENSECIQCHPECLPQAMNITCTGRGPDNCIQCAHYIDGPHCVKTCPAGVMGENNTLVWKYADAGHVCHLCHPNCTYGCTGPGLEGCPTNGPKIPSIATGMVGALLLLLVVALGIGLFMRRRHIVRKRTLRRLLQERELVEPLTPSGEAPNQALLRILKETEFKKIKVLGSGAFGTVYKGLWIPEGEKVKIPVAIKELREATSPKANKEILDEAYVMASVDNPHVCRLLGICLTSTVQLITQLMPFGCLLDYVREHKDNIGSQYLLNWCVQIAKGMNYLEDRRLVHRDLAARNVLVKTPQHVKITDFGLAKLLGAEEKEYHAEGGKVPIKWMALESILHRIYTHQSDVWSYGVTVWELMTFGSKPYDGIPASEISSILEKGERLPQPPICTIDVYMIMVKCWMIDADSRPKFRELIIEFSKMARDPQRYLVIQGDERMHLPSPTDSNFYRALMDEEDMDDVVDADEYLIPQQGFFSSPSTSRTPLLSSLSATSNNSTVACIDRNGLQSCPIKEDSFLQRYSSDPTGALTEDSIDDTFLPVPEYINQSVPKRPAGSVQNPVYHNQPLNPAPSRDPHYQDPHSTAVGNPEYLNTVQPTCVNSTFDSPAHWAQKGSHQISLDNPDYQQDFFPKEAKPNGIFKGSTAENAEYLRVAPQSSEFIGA
Outline: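 Phospho-EGFR ELISA on lysates of engineered NIH 3T3 EGFR WT cells, IC50 derived from concentration curves. Cells plated at 20,000/well overnight, given compound dilutions 1 h at 37 °C, then rEGF 100 ng/ml for a further 10 min before lysis.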

[3] = target: BCRP (Homo sapiens (Human), UniProt Q9UNQ0); assay: BCRP transfected MDCKII canine Mdr1 knockout permeability/efflux, Assay 9; conditions: dog
[4] = target: ErbB2 with Exon 20 YVMA insertion (HER2-YVMA) (Homo sapiens (Human), UniProt P04626, INS775YVMA); assay: Cellular phosphorylation assay, constitutive ErbB2 phosphorylation (Y1196) in engineered NIH 3T3 cells, Assay 4; assay type: cell-based
Outline: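 In-cell Western in NIH 3T3 cells carrying ErbB2 exon 20 YVMA insertion, with no ligand stimulation. One hour compound exposure at 37 °C before fixation and anti-pY1196 plus GAPDH staining with dual-wavelength fluorescence. IC50 derived after GAPDH normalization.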

[5] = target: EGFR (Homo sapiens (Human), UniProt P00533); assay: ErbB enzyme assay (CisBio HTRF KinEASE-TK), Assay 3; assay type: biochemical
Sequence of EGFR (P00533 25-1210): as above
Outline: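 Using a time-resolved FRET read-out, tyrosine phosphorylation of 250 nM biotin substrate at 1 mM ATP (pH 7.4, 10 mM MgCl2, 2% DMSO, 22 °C, 30 min) was quantified against DMSO and pre-quenched controls; IC50 taken at 50% of control.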

[6] = target: ErbB2 insYVMA (HER2-YVMA, SEQ ID NO: 2) (Homo sapiens, UniProt P04626, INS775YVMA/P1170A); assay: biochemical; conditions: ErbB2 insYVMA enzyme assay; read-out: Assay 1 IC50
[7] = target: ErbB2 WT (Homo sapiens (Human), UniProt P04626); assay: ErbB enzyme assay (CisBio HTRF KinEASE-TK), Assay 2; assay type: biochemical
Sequence of ErbB2 WT (P04626 23-1255): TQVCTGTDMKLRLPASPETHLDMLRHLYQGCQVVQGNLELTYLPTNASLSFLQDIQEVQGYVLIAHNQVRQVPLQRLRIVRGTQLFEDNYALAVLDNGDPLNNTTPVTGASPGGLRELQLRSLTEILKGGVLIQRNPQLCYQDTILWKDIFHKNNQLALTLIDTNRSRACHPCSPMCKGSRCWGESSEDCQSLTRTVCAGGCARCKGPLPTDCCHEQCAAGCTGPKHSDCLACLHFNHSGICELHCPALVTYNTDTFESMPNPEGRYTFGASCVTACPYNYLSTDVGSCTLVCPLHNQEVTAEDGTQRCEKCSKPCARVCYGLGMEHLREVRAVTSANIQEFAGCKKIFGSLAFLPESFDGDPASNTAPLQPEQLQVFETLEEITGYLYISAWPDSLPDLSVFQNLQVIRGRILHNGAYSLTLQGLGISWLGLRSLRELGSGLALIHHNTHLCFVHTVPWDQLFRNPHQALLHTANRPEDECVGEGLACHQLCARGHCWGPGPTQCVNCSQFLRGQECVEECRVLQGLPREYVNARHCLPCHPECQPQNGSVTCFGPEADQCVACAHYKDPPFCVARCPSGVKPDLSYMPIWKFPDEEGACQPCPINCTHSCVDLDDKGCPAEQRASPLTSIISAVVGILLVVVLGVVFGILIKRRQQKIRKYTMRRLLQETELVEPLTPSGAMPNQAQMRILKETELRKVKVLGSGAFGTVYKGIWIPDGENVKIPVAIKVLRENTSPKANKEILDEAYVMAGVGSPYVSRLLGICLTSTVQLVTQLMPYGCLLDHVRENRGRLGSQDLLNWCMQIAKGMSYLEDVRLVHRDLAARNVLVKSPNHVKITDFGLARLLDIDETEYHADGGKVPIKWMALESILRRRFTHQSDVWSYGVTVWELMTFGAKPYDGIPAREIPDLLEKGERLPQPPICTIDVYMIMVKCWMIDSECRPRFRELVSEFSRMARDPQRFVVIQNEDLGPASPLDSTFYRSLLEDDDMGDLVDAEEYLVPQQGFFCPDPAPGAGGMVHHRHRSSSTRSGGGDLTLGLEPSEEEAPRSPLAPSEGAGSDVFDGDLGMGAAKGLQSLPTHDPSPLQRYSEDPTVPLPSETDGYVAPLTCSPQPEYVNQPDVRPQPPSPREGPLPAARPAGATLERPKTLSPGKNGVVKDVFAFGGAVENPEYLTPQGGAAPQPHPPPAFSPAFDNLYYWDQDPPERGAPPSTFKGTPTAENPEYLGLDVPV
Outline: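 Readout is HTRF KinEASE-TK, using Sa-XL665 and cryptate antibody for 1 h at 22 °C, as percent of control between DMSO-only (100) and pre-quenched (0) reactions. The kinase reaction runs 30 min at 22 °C with 1 mM ATP and 250 nM biotinylated TK substrate, in HEPES pH 7.4 with MgCl2 and 2% DMSO.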

[8] = target: T1, MDR1 (P-gp); assay: MDR1 transfected MDCKII canine Mdr1 knockout permeability/efflux, Assay 7; conditions: dog, MDCK-MDR1
Description: as §1, §2, §3, §4, §5, §6, §7

[9] = LLC-PK1, Assay 6 Pe Ratio, efflux ratio Papp(B-A)/Papp(A-B), MDR1 transfected LLC-PK1
[10] = Assay 9 Pe Ratio, efflux ratio Papp(B-A)/Papp(A-B), BCRP transfected MDCKII canine Mdr1 knockout

T1 sequence (P08183 whole entry): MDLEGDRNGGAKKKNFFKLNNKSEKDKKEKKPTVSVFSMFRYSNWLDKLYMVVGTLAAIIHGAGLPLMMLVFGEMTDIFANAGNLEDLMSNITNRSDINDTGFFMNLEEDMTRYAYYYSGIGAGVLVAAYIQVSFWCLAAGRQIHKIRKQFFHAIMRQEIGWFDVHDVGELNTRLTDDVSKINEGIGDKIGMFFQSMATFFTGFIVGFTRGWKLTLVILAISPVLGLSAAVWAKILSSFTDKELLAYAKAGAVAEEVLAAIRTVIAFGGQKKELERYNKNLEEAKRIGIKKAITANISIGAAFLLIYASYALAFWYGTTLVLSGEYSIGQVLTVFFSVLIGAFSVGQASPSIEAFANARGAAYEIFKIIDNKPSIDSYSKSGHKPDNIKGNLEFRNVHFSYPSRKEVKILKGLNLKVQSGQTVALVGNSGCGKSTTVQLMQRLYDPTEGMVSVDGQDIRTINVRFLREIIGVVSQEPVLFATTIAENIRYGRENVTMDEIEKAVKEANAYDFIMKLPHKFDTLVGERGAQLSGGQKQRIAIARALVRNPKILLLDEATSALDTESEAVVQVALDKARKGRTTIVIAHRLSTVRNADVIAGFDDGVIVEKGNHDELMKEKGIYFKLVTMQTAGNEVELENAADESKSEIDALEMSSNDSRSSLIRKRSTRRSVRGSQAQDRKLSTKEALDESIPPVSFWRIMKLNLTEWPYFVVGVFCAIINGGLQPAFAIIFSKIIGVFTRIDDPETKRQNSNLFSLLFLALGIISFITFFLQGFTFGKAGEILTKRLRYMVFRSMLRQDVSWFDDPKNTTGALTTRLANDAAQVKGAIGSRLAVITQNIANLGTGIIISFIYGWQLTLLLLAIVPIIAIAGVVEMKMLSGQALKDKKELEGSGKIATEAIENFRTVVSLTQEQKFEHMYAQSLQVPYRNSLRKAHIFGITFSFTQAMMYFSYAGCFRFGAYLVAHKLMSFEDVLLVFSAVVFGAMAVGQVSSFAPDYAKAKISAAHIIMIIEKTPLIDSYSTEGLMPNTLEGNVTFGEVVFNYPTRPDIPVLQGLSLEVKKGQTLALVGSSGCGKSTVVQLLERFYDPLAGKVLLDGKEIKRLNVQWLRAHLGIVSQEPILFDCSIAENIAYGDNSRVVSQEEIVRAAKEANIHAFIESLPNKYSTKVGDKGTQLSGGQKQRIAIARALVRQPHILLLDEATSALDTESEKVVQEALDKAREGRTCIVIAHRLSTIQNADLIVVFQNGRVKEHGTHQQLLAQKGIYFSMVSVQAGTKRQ

| Compound | efflux ratio at 2 h, 1 μM [1, 9] | IC50 [2] [µM] | efflux ratio at 2 h, 1 μM [3, 10] | IC50 [4] [µM] | IC50 [5] [µM] | IC50 [6] [µM] | IC50 [7] [µM] | efflux ratio at 2 h, 1 μM [8] | efflux ratio at 2 h, 1 μM ([1]; LLC-PK1) | efflux ratio at 2 h, 1 μM [3] |
| --- | --- | --- | --- | --- | --- | --- | --- | --- | --- | --- |
| CNc1ncc2ncnc(Nc3ccc(Oc4cc(F)c5c(c4)ncn5C)c(C)c3)c2n1 [Example 88, N8-(4-((7-fluoro-1-methyl-1H-benzo[d]imidazol-5-yl)oxy)-3-methylphenyl)-N2-methylpyrimido[5,4-d]pyrimidine-2,8-diamine] | 1.9 | ≥ 5 | 1 | 0.0051 | 9.48 | 0.0048 | 0.0086 | – | – | – |
| Cc1cc(Nc2ncnc3cnc(N4CCO[C@H]5C[C@H]54)nc23)ccc1Oc1ccc2c(c1)ncn2C [Example 161, 6-((1S,6R)-2-oxa-5-azabicyclo[4.1.0]heptan-5-yl)-N-(3-methyl-4-((1-methyl-1H-benzo[d]imidazol-5-yl)oxy)phenyl)pyrimido[5,4-d]pyrimidin-4-amine] | 1.8 | ≥ 5 | 1.2 | 0.016 | 8.28 | 0.0184 | 0.0289 | – | – | – |
| Cc1cc(Nc2ncnc3cnc(N(C)CC(C)(C)O)nc23)ccc1Oc1ccc2c(c1)ncn2C [Example 163, 2-methyl-1-(methyl(8-((3-methyl-4-((1-methyl-1H-benzo[d]imidazol-5-yl)oxy)phenyl)amino)pyrimido[5,4-d]pyrimidin-2-yl)amino)propan-2-ol] | 1.8 | ≥ 5 | 2.7 | 0.0216 | 4.48 | 0.0282 | 0.0368 | – | – | – |
| Cc1cc(Nc2ncnc3cnc(N(C)C[C@H](C)O)nc23)ccc1Oc1ccc2c(c1)ncn2C [Example 195, (S)-1-(methyl(8-((3-methyl-4-((1-methyl-1H-benzo[d]imidazol-5-yl)oxy)phenyl)amino)pyrimido[5,4-d]pyrimidin-2-yl)amino)propan-2-ol] | – | ≥ 5 | – | 0.0101 | 7.29 | 0.0173 | – | 4.6 | – | – |
| Cc1cc(Nc2ncnc3cnc(N4C[C@H]5C[C@@H]4CO5)nc23)ccc1Oc1cc(F)c2c(c1)ncn2C [Example 204, 6-((1R,4R)-2-oxa-5-azabicyclo[2.2.1]heptan-5-yl)-N-(4-((7-fluoro-1-methyl-1H-benzo[d]imidazol-5-yl)oxy)-3-methylphenyl)pyrimido[5,4-d]pyrimidin-4-amine] | 1.3 | ≥ 5 | 1.2 | 0.0131 | 8.06 | 0.0319 | 0.108 | – | – | – |
| Cc1cc(Nc2ncnc3cnc(NCC(F)F)nc23)ccc1Oc1cc(F)c2c(c1)ncn2C [Example 207, N2-(2,2-difluoroethyl)-N8-(4-((7-fluoro-1-methyl-1H-benzo[d]imidazol-5-yl)oxy)-3-methylphenyl)pyrimido[5,4-d]pyrimidine-2,8-diamine] | 1.6 | ≥ 5 | 1.7 | 0.0169 | 1.72 | 0.0224 | 0.0451 | – | – | – |
| Cc1cc(Nc2ncnc3cnc(N4CCC45COC5)nc23)ccc1Oc1cc(F)c2c(c1)ncn2C [Example 216, N-(4-((7-fluoro-1-methyl-1H-benzo[d]imidazol-5-yl)oxy)-3-methylphenyl)-6-(6-oxa-1-azaspiro[3.3]heptan-1-yl)pyrimido[5,4-d]pyrimidin-4-amine] | – | ≥ 5 | – | 0.0157 | 2.36 | 0.0332 | 0.0486 | – | 1.7 | 0.9 |
| Cc1cc(Nc2ncnc3cnc(N4CCCC4)nc23)ccc1Oc1ccc2c(c1)ncn2C [Example 222] | 1 | ≥ 5 | 1.6 | 0.0389 | ≥ 10 | 0.0344 | 0.0412 | – | – | – |
| Cc1ncc(-c2ncc3ncnc(Nc4ccc(Oc5ccc6c(c5)ncn6C)c(C)c4)c3n2)o1 [Example 223] | 1.9 | ≥ 5 | 3.7 | 0.0127 | ≥ 10 | 0.0916 | 0.101 | – | – | – |
| Cc1cc(Nc2ncnc3cnc(-c4cnsc4)nc23)ccc1Oc1ccc2c(c1)ncn2C [Example 228] | 1.1 | ≥ 5 | 1 | 0.0242 | ≥ 10 | 0.115 | 0.272 | – | – | – |
| Cc1cc(Nc2ncnc3cnc(-c4cccnc4)nc23)ccc1Oc1ccc2c(c1)ncn2C [Example 233] | 1.5 | ≥ 5 | 1.6 | 0.0157 | 3.74 | 0.0275 | 0.0415 | – | – | – |
| Cc1cc(Nc2ncnc3cnc(N4CC5C(C4)C5(F)F)nc23)ccc1Oc1ccc2c(c1)ncn2C (centres unmarked) [Example 234] | 1.8 | ≥ 5 | 5.2 | 0.0391 | ≥ 10 | 0.104 | 0.165 | – | – | – |
| Cc1cc(Nc2ncnc3cnc(-c4ccccn4)nc23)ccc1Oc1ccc2c(c1)ncn2C [Example 239] | 2.1 | ≥ 5 | 3.5 | 0.0091 | ≥ 10 | 0.127 | 0.107 | – | – | – |
| Cc1nc(-c2ncc3ncnc(Nc4ccc(Oc5ccc6c(c5)ncn6C)c(C)c4)c3n2)cs1 [Example 247] | 1.6 | ≥ 5 | 4.7 | 0.0035 | ≥ 10 | 0.0817 | 0.0969 | – | – | – |
| Cc1cc(Nc2ncnc3cnc(N4CCC[C@H]4C(F)(F)F)nc23)ccc1Oc1ccc2c(c1)ncn2C [Example 249] | 0.3 | ≥ 5 | 3 | 0.0374 | ≥ 10 | 0.0359 | 0.0234 | – | – | – |
| Cc1cc(Nc2ncnc3cnc(N4CC[C@H](C(F)F)C4)nc23)ccc1Oc1ccc2c(c1)ncn2C [Example 252] | 0.7 | ≥ 5 | 2.6 | 0.0257 | ≥ 10 | 0.0929 | 0.242 | – | – | – |
| Cc1cc(Nc2ncnc3cnc(N4CC[C@@H](C(F)F)C4)nc23)ccc1Oc1ccc2c(c1)ncn2C [Example 253] | 1.2 | ≥ 5 | 2 | 0.0393 | ≥ 10 | 0.093 | 0.171 | – | – | – |
| Cc1cc(Nc2ncnc3cnc(N4C[C@H]5C[C@@H]4CO5)nc23)ccc1Oc1ccc2c(c1)ncn2C [Example 262] | 1.7 | ≥ 5 | 2.7 | 0.044 | ≥ 10 | 0.0223 | 0.116 | – | – | – |
| Cc1cc(Nc2ncnc3cnc(N4CCOC(C)(C)C4)nc23)ccc1Oc1ccc2c(c1)ncn2C [Example 272] | 1.6 | ≥ 5 | 0.6 | 0.0402 | 9 | 0.0673 | 0.104 | – | – | – |
| Cc1cc(Nc2ncnc3cnc(N4C[C@@H]5C[C@H]4CO5)nc23)ccc1Oc1ccc2c(c1)ncn2C [Example 274] | 2.4 | ≥ 5 | 1.7 | 0.0121 | 3.25 | 0.0307 | 0.0388 | – | – | – |
| Cc1cc(Nc2ncnc3cnc(N4CC5(CCO5)C4)nc23)ccc1Oc1ccc2c(c1)ncn2C [Example 282] | 1.9 | ≥ 5 | 3.5 | 0.0263 | ≥ 10 | 0.04 | 0.0839 | – | – | – |
| Cc1cc(Nc2ncnc3cnc(N(C)CC4CCO4)nc23)ccc1Oc1ccc2c(c1)ncn2C (centres unmarked) [Example 350] | 1.9 | ≥ 5 | 3.5 | 0.0263 | ≥ 10 | 0.04 | 0.0839 | – | – | – |
